From patent US9023811B2, “Method for treating a cardiovascular disease, hypercholesterolemia or hypertension or improving serum cholesterol levels by administering broccoli with a high level of glusosinolates” (Plant Bioscience Limited, priority 2009, dated 2015)
Read-outs that look alike come from different tables or passages of the source.

What was measured:
bovine insulin = molecular target: T1, bovine insulin (Bos taurus, UniProt P01317); assay: Incubation of peptides with isothiocyanates, LC-MS/MS; format: binding; details: PBS pH 7.4 at 37° C., 0.5 to 24 hours
T1 construct: m/z 325.2 corresponds to Phe-SF, the N-terminal amino acid of insulin B chain; m/z 235.0 corresponds to Gly-SF, the N-terminal amino acid of insulin A chain; purchased Sigma-Aldrich
T1 sequence (P01317 25-54 limits assumed): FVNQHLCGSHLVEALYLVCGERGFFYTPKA
T1 sequence (P01317 85-105 limits assumed): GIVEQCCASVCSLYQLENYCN
Experimental: (§1) Incubations of SF or IB with bovine insulin (P01308, Sigma-Aldrich), recombinant human epidermal growth factor (EGF, P01133, R&D Systems, http://www.rndsystems.com/) and recombinant human transforming growth factor beta 1 (TGFβ1, P01137, R&D Systems) were performed in sodium phosphate-buffered saline solution (pH 7.4) or human blood plasma at 37° C. for 0.5-24 h. Plasma was pre-treated by ultrafiltration to remove high molecular weight proteins (Microcon Ultracel YM-30 filter, MWCO 30,000). Samples were either analyzed directly by LC-MS/MS or by LC-MS/MS analysis of tryptic digests of gel electrophoresis bands.
(§2) The LC system used was a Shimadzu series LOAD VP (Shimadzu). The column was an ACE 300 C18, 150×2.1 mm (5 μm particle size) used at 40° C. Mobile phase A was 0.1% formic acid in water, mobile phase B, 0.1% formic acid in acetonitrile and the flow rate was 0.25 ml/min. A linear gradient was used from 25% B to 35% B over 0 to 5 min, then a further gradient from 35% B to 99% B over 6 min followed by 99% B for 4 min. The column was re-equilibrated for a total of 3 min. The injection volume was between 5-20 μl. […] The peak-width was set on Q1 and Q3 at 1.0 Th (measured at half height) for all MS and MS/MS experiments. […]

[1] = molecular target: T2, recombinant human epidermal growth factor (EGF) (Homo sapiens, UniProt P01133); assay: as above; format: binding; details: PBS pH 7.4 at 37° C., 0.5 to 24 hours
T2 construct: addition of SF to the N-terminal asparagines residue (m/z 309) of EGF; purchased R&D Systems
T2 sequence (P01133 971-1023 limits assumed): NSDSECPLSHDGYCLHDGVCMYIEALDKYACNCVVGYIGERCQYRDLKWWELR
Experimental: as §1, §2

[2] = molecular target: T3, recombinant human transforming growth factor beta 1 (TGFβ1) (Homo sapiens, UniProt P01137); assay: as above; format: binding; details: PBS pH 7.4 at 37° C., 0.5 to 24 hours
T3 construct: TGFβ1 was robustly identified in bands of 25 kDa corresponding to the active dimer; The N-terminal peptide […] was identified; purchased R&D Systems
T3 sequence (P01137 279-390 limits assumed): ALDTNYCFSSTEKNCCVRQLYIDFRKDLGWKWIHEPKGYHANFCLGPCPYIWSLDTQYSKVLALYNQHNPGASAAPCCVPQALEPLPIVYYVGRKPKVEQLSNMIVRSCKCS
Experimental: as §1, §2

[3] = test system: TGFβ1/Smad mediated transcription
Experimental: Cells were seeded into complete growth medium in a six-well tissue culture dish for 24 h, after which the medium was replaced with low serum medium (0.5% FCS) containing one of three treatments: (1) TGFβ1 (to achieve a final concentration of 2 ng ml^−1) in PBS buffer, (2) TGFβ1^+10 mM DTT in PBS buffer (3) TGFβ1^+2 μM SF in PBS buffer. To simulate SF pharmacokinetics, all test samples were incubated at 37° C. for 30 minutes prior to dialysis, performed in PBS buffer for 4 hours using Slide-A-Lyzer Dialysis Cassettes MWCO 3.5K (PIERCE). Dialysis reduced SF concentration to 34 nM. As additional controls, cells were treated with PBS without TGFβ1 and PBS with SF (34 nM). The luciferase activity was determined 16 h following treatment using the Luciferase Reporter Gene assay (Roche Applied Science) in a Perkin Elmer Wallac Victor 2 1420 multilabel counter plate reader (Perkin Elmer). Briefly, cells were washed twice with PBS and lysed in cell lysis buffer supplied with the assay. Chemiluminescence was immediately quantified following the addition of luciferase assay substrate. Luciferase values were normalized to protein concentration quantified using the BCA assay (Sigma-Aldrich). The experiment was repeated four times, with three replicates of each treatment per experiment. Statistical analysis was performed using 1-way ANOVA with the statistical software, R [24].

[4] = test system: EGF receptor phosphorylation in BPH cells; details: EGF pre-incubated with ITC, compared to EGF alone

Experimental for pAKT in PC-3 cells: BPH-1 or PC-3 cells were cultured in 10 cm cell culture dishes or 6-well culture plates until they reached 80% confluency and were lifter using TE buffer (10 mM Tris/HCl, 1 mM EDTA, pH8). After 24 h treatment with SF cells were washed three times with cold PBS and treated with RIPA buffer for 2 min on ice, followed by centrifugation at 13 000 g at 4° C. for 10 min and the supernatant collected for western blotting. Protein was separated on NuPage 10% polyacrylamide gels by electrophoresis and transferred to nitrocellulose membranes. Membranes were probed with primary antibodies obtained from Cell Signalling© at a dilution of 1:1000: Phospho-Akt (Ser^473) Rabbit mAb (#4060 L) and AKT (pan) Rabbit rnAb (#4685). GAPDH was used as a loading control for all blots. Proteins were visualised with SuperSignal West Chemiluminescence kit.

Row | Smad-mediated transcription (luciferase activity) ([3]; TGFβ1 pre-incubated with SF (2 μM) for 30 minutes followed by dialysis, compared to TGFβ1 alone) | Smad-mediated transcription (luciferase activity) ([3]; residual SF (34 nM) alone, without TGFβ1) | SMILES | conjugate of peptide and ITC (insulin) (bovine insulin) | conjugate of peptide and ITC (EGF) [1] | conjugate of peptide and ITC (TGFβ1) [2] | amount of phosphorylated EGF receptor [4] | pAKT expression (pAKT in PC-3 cells; PC-3 cells + FCS, 2 μM SF, one hour) | pAKT expression (pAKT in PC-3 cells; PC-3 cells + FCS, 10 μM SF) | pAKT expression (pAKT in PC-3 cells; PC-3 cells in culture medium without FCS) | pAKT expression (pAKT in PC-3 cells; PC-3 cells, 0.5 μM SF (data not shown))
1 | – | – | C[S+]([O-])CCCN=C=S (stereo not shown) [IB, iberin] | formation of a covalently bound conjugate | formation of a covalently bound conjugate | formation of a covalently bound conjugate | – | – | – | – | –
2 | increase in Smad-mediated transcription | did not result in enhanced transcription | C[S+]([O-])CCCCN=C=S (stereo not shown) [SF, sulforaphane] | formation of a covalently bound conjugate | formation of a covalently bound conjugate | formation of a covalently bound conjugate | reduces the amount of phosphorylated receptor | suppresses pAKT | variable response | no further inhibition | suppression
